We go through seven compounds from ChEMBL document CHEMBL1133023, “Deoxy sugar analogues of triciribine: correlation of antiviral and antiproliferative activity with intracellular phosphorylation” (J Med Chem, 2000).

SMILES strings stand for the structures. A value given as a limit tells only on which side of the number the result lay.

By IC50 is commonly meant the concentration that gives 50% inhibition.

Common to all, as to assay type: functional, cell-based
Assay [1] concerns CEM-SS. In words: Intracellular phosphorylation (100 uM) in uninfected CEM-SS cells was studied after 24 hrs of Incubation time; Value ranges from 3-5. To be noted: Homo sapiens.
Assay [2] deals with HFF. The experiment in a line: Tested for visual cytotoxicity on uninfected HFF cells. As to conditions: Homo sapiens.
For another assay, the system named is L1210. In words: Tested in vitro for cytotoxicity against murine L1210 leukemic cells. As to conditions: Mus musculus.
A further assay deals with KB. The experiment in a line: Inhibition of KB cell growth was assessed. As to conditions: Homo sapiens.
Assay [3] deals with CEM-SS. The experiment in a line: Tested for visual cytotoxicity on uninfected CEM-SS cells. As to conditions: Homo sapiens.
Assay [4] is described as follows: Antiviral activity was tested using an enzyme-linked immunosorbent assay (ELISA) to detect HSV-1 (herpes simplex virus type 1) using BSC-1 cells. As to conditions: Cercopithecidae. In general terms: In an ELISA, binding on a coated surface is turned into a signal by an enzyme label.
For assay [5], the system named is HFF. The experiment in a line: HCMV plaque assay was performed using HFF cells and effect was calculated as a percentage of reduction in number of plaques. To be noted: Homo sapiens.
For assay [6], the system named is CEM-SS. The experiment in a line: Intracellular phosphorylation (100 uM) in uninfected CEM-SS cells was studied after 24 hrs of Incubation time. As to conditions: Homo sapiens.

In turn, `CN1N=C(N)c2cn([C@H]3C=C[C@@H](CO)O3)c3ncnc1c23` yielded a Concentration in the assay with CEM-SS [1] below 5 µM. The IC50 (with HFF [2]; in the assay on L1210; in the assay on KB; in the assay with CEM-SS [3]; in assay [4]; with HFF [5]) was above 100 µM in each case.
Turning to `CN1N=C(N)c2cn(C3O[C@H](CO)[C@H]4O[C@H]34)c3ncnc1c23` (some centres not stated), the IC50 was above 100 µM in the assay on HFF [2]; above 100 µM in the assay on KB; above 100 µM with CEM-SS [3]; 65 µM in assay [4]; above 100 µM in the assay with HFF [5]. Also, in the assay on CEM-SS [6], the Concentration is below 5 µM.
As to `CN1N=C(N)c2cn([C@@H]3O[C@H](COP(=O)(O)O)[C@@H](O)[C@H]3O)c3ncnc1c23` [TRICIRIBINE PHOSPHATE], the IC50 is 19 µM in the assay with HFF [2]; 0.025 µM in the assay with L1210; 10 µM in the assay on KB; above 1 µM in the assay on CEM-SS [3]; 20 µM in assay [4]; 0.8 µM with HFF [5].
In turn, `CN1N=C(N)c2cn(C3C[C@@H](O)[C@@H](CO)O3)c3ncnc1c23` (some centres not stated) showed a Concentration with CEM-SS [1] below 5 µM. In addition, the IC50 (in the assay on HFF [2]; in the assay on L1210; in the assay with KB; in the assay on CEM-SS [3]; in assay [4]; with HFF [5]) was above 100 µM in each case.
Take `CN1N=C(N)c2cn([C@@H]3O[C@H](CO)C[C@H]3O)c3ncnc1c23`: the IC50 in the assay on HFF [2] is above 100 µM; in the assay on L1210 it was 2.2 µM; in the assay on KB it was 16 µM; with CEM-SS [3], 100 µM; in assay [4], 6 µM; with HFF [5] it was above 100 µM. The same compound came in with a Concentration in the assay on CEM-SS [6] of 276 µM.
As for `C[C@H]1OC(n2cc3c4c(ncnc42)N(C)N=C3N)[C@H](O)[C@@H]1O` (some centres not stated), the Concentration in the assay on CEM-SS [1] is below 5 µM. The IC50 (with HFF [2]; with L1210; in the assay with KB; in the assay with CEM-SS [3]; in assay [4]; with HFF [5]) was above 100 µM in each case.
Regarding `CN1N=C(N)c2cn([C@H]3CC[C@@H](CO)O3)c3ncnc1c23`, the IC50 with HFF [2] is above 100 µM; in the assay with L1210, 25 µM; in the assay on KB, above 100 µM; in the assay on CEM-SS [3] it was above 100 µM; in assay [4], above 100 µM; in the assay with HFF [5], above 100 µM. This compound yielded a Concentration in the assay on CEM-SS [6] of 45 µM.
